The target in series [1] is T1, PKA-IIα sensor (RIIα-RLuc / GFP2-Cα) in COS-7 cells (Homo sapiens, UniProt P13861). The arrangement: expressed in transfected cells; host or cells: COS-7; method as in PMID 16524697. The following applies: living cells; read-out: EC50, holoenzyme dissociation by BRET; cited from earlier work. (In general: In BRET a luciferase serves as donor, and the signal depends on an acceptor being close.)

For series [2], the system named is HEK293 cells expressing H30 indicator. Description: Uptake in living cells, Epac-based FRET cAMP indicator H30. It counts as cell-based. The note with it: 100 μM IBMX. The source says:
Since FRET depends on the distance between the two fluorophores which in turn is ligand-dependent, this probe is used to estimate the intracellular level of cAMP or -analogs.
We can not exclude, however, that the Epac- based FRET sensor used for the measurements preferentially binds Sp-5,6-DCl-cBIMPS.
The ratio between the background subtracted emission intensities at 480 nm and 545 nm is plotted as a function of time. […] The insets show the yellow fluorescent protein fluorescence at the beginning of the experiments and the regions of interest where FRET ratios are calculated.
For transient expression of the H30 sensor, cells were seeded onto 24-mm diameter round glass coverslips, and transfections were performed at 50–70% confluence with FuGENE-6 transfection reagent (Roche). Imaging experiments were performed after about 24 h. Cells were maintained in Hepes-buffered Ringer-modified solution, containing 125 mM NaCl, 5 mM KCl, 1 mM Na3PO4, 1 mM MgS0_4, 5.5 mM glucose, 1 mM CaCl2, and 20 mM Hepes, pH 7.4, at room temperature and treated with 100 μM 3-Isobutyl-1-methylxanthine (IBMX, Sigma-Aldrich) 10 minutes before the experiments. […] FRET variations were measured as changes of the ratio between the background-subtracted fluorescence emission intensities at 480 nm and 545 nm, on excitation at 430 nm. […]

In a further series the target is T2, RIα subunit (Homo sapiens, UniProt P10644).
T2 construct: made in house; host or cells: E. coli BL21 (DE3) Codon Plus RIL
T2 sequence (P10644 whole entry): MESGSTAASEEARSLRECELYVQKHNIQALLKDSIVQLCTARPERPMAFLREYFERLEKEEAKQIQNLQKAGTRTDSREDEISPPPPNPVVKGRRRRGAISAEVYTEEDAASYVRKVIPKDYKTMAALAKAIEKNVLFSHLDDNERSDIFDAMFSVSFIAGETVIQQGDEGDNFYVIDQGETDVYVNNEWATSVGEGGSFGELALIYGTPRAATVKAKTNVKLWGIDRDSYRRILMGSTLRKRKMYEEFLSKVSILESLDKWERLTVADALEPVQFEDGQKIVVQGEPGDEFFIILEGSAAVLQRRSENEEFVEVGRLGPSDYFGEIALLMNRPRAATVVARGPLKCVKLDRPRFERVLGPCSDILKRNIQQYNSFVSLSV
The experiment in a line: Fluorescence polarization displacement of 8-Fluo-cAMP from RIα subunit. The note with it: 2.5 nM RIα, 1 nM 8-Fluo-cAMP. Format: binding. The procedure: (§1) . Figure 3 Competitive nucleotide binding assay using fluorescence polarization. […] 2.5 nM R subunit was added and fluorescence polarization was determined at Ex485 nm/Em535 nm. […] Each data point represents the mean +/- S.E.M. from at least triplicate measurements.
(§2) For expression of PKA regulatory subunits, one liter of Luria Broth medium containing 100 μg/ml of ampicillin was inoculated with E. coli BL21 (DE3) Codon Plus RIL cells (Stratagene) transformed with human RIα, RIβ, RIIα (in pRSETB) or rat RIIβ (in pETIIc) and grown at 37°C to an OD600 nm of 0.8. Recombinant protein expression was induced by addition of […] isopropyl-β-D-thiogalactopyranoside (IPTG) and the culture was incubated at 25°C for additional 17–18 h. The pellets were stored at -20°C.
(§3) The fluorescence polarization displacement assay was performed as described before. […] Fluorescence polarization was measured after 5 minutes of incubation at room temperature.

The test system of another series is RIIα subunit. The experiment in a line: Fluorescence polarization displacement of 8-Fluo-cAMP from RIIα subunit. The note with it: 2.5 nM RIIα, 1 nM 8-Fluo-cAMP. It counts as binding, human. The procedure:
as §1, §2, §3

The next series deals with RIIβ subunit. The experiment in a line: Fluorescence polarization displacement of 8-Fluo-cAMP from RIIβ subunit. It counts as binding, rat. The note with it: 2.5 nM RIIβ, 1 nM 8-Fluo-cAMP. The protocol:
as §1, §2, §3
In general terms: Fluorescence polarisation rises when a labelled molecule tumbles more slowly, as on binding a larger partner.

The target of the next series is T3, PKA-Iα holoenzyme (Homo sapiens, UniProt P10644).
T3 construct: made in house; host or cells: E. coli BL21 (DE3) / BL21 (DE3) Codon Plus RIL
T3 sequence (P10644 whole entry): as above
Description: PKA holoenzyme activation, coupled spectrophotometric kinase assay with Kemptide (RIα + Cα). The note with it: 20 nM PKA-Cα, 260 μM Kemptide; cAMP value printed with refs 27, 28 and Fig. 4a; read-out: apparent activation constant (EC50), RIα holoenzyme. It counts as biochemical, human RIα, murine Cα. The protocol: (§4) Kinase activity was assayed spectrophotometrically, using the synthetic heptapeptide Kemptide as a substrate. […] Each data point represents the mean ± S.D. of two measurements.

For the next series, the target named is T4, PKA-IIα holoenzyme (Homo sapiens, UniProt P13861).
T4 construct: made in house; host or cells: E. coli BL21 (DE3) / BL21 (DE3) Codon Plus RIL
T4 sequence (P13861 whole entry): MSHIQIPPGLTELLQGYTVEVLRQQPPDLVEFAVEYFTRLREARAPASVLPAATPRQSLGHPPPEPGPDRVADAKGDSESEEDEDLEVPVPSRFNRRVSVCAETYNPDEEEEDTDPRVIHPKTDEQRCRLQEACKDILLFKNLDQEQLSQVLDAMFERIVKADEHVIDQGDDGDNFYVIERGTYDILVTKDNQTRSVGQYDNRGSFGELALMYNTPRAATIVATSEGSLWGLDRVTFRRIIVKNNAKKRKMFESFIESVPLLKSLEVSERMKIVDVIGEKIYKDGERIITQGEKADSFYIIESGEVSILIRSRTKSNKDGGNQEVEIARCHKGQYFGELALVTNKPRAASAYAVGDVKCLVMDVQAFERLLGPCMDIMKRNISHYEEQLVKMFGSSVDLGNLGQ
The experiment in a line: PKA holoenzyme activation, coupled spectrophotometric kinase assay with Kemptide (RIIα + Cα). Format: biochemical, human RIIα, murine Cα. The following applies: relative to cAMP. The protocol:
as §4

The target of another series is T5, PKA-IIβ holoenzyme (Rattus norvegicus, UniProt P12369).
T5 construct: made in house; host or cells: E. coli BL21 (DE3) / BL21 (DE3) Codon Plus RIL
T5 sequence (P12369 whole entry): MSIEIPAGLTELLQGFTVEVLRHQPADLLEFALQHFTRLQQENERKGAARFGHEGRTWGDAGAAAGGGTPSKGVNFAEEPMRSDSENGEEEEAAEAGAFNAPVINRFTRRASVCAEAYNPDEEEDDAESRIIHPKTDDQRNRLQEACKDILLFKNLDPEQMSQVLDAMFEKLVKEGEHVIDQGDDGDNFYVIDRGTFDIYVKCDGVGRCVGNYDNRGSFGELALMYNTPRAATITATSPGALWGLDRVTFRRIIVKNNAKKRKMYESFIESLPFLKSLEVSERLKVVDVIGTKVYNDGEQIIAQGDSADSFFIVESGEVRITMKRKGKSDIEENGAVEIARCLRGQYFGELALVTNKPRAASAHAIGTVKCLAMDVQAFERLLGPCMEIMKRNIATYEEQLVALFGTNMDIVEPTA
Description: PKA holoenzyme activation, coupled spectrophotometric kinase assay with Kemptide (RIIβ + Cα). Format: biochemical, rat RIIβ, murine Cα. The following applies: relative to cAMP. The protocol: as §4

For the next series, the target named is PDE4D5 (Homo sapiens, UniProt Q08499). Description: Stability towards phosphodiesterase, coupled spectrophotometric activity assay. The note with it: 15 minutes of assay duration. The source says: Absolutely stable analogs would arise from conjugating the Pharos fluorophore to phosphorothioate- modified structures such as Rp- or Sp-cAMPS (Rp- or Sp-diastereomer of adenosine 3'-5'-monophosphorothiorate).
Sequence of PDE4D5 (Q08499 1-745 isoform Q08499-6): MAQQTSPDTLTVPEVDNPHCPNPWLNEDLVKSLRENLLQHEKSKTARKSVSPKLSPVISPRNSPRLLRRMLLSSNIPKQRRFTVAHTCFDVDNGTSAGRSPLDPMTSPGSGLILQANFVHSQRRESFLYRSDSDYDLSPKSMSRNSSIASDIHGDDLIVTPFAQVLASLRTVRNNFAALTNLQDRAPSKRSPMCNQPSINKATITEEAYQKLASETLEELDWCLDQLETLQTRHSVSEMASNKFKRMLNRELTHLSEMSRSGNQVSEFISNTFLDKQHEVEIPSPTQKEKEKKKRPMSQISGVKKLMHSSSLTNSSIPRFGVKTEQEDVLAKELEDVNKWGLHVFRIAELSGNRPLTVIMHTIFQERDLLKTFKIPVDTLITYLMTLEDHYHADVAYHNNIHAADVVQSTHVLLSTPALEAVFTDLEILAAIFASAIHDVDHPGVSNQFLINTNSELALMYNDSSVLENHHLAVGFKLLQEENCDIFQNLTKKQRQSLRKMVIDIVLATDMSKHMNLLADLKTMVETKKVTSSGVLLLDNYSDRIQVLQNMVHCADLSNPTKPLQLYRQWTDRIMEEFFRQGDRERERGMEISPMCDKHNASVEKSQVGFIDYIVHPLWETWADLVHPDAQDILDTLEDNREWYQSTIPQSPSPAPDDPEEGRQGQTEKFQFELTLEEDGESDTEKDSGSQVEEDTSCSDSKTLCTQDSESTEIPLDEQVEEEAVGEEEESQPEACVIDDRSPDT

In series [3] the target is T6, GFP-hRIα expressed in COS-7 cells (Homo sapiens, UniProt P10644).
T6 construct: expressed in transfected cells; host or cells: COS-7
T6 sequence (P10644 whole entry): as the sequence (P10644 whole entry) above
The experiment in a line: Co-localization with GFP-tagged RIα by confocal microscopy. Format: cell-based. The following applies: 500 μM, 30 minutes. The procedure:
(§5) The scale bar indicates 10 μm.
(§6) Cloning of the R subunits into the expression vector hpGFP^2-N2 (PerkinElmer) was performed as described previously. […] Cellular imaging was performed on a confocal microscope (Leica) with a Plan apo 100× oil immersion objective (Leica).

Series [4] deals with T7, GFP-hRIIα expressed in COS-7 cells (Homo sapiens, UniProt P13861).
T7 construct: expressed in transfected cells; host or cells: COS-7
T7 sequence (P13861 whole entry): as the sequence (P13861 whole entry) above
Description: Co-localization with GFP-tagged RIIα by confocal microscopy. Format: cell-based. The following applies: 500 μM, 30 minutes. The procedure: as §5, §6

Series [5] is described as follows: Absorption and fluorescence spectra, relative quantum yield. It counts as physicochemical. The note with it: pH 7.0. The source says: First we determined the photo-chemical properties of the free Pharos dye. The Stokes shift at pH 6.0, pH 7.0 and pH 7.4 was 42 nm resulting from an absorption maximum at 575 nm and an emission maximum at 617 nm (Fig. 1; […]
Figure 1 Fluorescence absorption and emission spectra of the Pharos dye. The absorption maxima of the Pharos dye dissolved in buffer with the indicated pH values is at 575 nm, whereas the emission maxima are at 617 nm.
To calculate the relative quantum yield ϕ of the Pharos dye the absorption (500 nm to 640 nm) and fluorescence (λex = 553 nm, λem ranging from 558 nm to 800 nm) spectra of several Pharos dye concentrations (640 nM to 64.2 μM) were recorded using quinine sulfate as a standard. The determination of the relative quantum yield is generally accomplished by plotting the integrated fluorescence intensity versus the absorbance at the excitation wavelength (see Additional file 1, panel a). By comparing the slope of the linear regression (see Additional file 1, panel b) with that of a standard substance (quinine sulfate), the relative quantum yield of the Pharos dye was determined to be 30%.
The Pharos dye was diluted in 20 mM 2-(4-morpholino)-ethane sulfonic acid (MES) buffer adjusted to pH 6.0, pH 7.0 and pH 7.4, and all samples were degassed by bubbling nitrogen through the solution before measuring the absorption or fluorescence spectra. […]

The target in series [6] is T1, PKA-IIα sensor (RIIα-RLuc / GFP2-Cα) in COS-7 cells. The experiment in a line: BRET assay of PKA holoenzyme dissociation in living cells. The following applies: 30 minutes.
Description: In this assay, a decrease in BRET signal indicates intracellular dissociation of the PKA holoenzyme [42].
BRET signals were obtained after addition of the luciferase substrate DeepBlueC™ and detection of luciferase and fluorescence light emission using a multi-label reader. Shown is a representative experiment, repeated three times; data are mean ± S.E.M., performed with n = 6 replicates. […] Briefly, cells were co-transfected with a constant amount of BRET donor (hRIIα-Rluc) and an increasing amount of acceptor DNA (GFP^2-hCα) as indicated. […] The BRET values of two independent experiments, each performed with n = 6 replicates, were background subtracted, normalized and plotted as mean ± S.E.M.
COS-7 cells were used for BRET experiments. […] For the BRET read-out, the luciferase substrate DeepBlueC™ (PerkinElmer) was added at a final concentration of 5 μM in a total volume of 50 μl D-PBS. […] Control measurements with cells expressing RLuc and GFP proteins without a fusion partner yield the background BRET signal. A BRET titration (bystander BRET test) was performed by co-transfection of COS-7 cells with a constant donor-expression plasmid (0.5 μg) with an increasing amount of acceptor-expression plasmid (0–2 μg). The cells were treated as described above.
The nature of series [7]: Retention-based lipophilicity by reversed phase HPLC (logKw).

Where two headings read alike, the source gives them in different places.

T1 sequence (P13861 whole entry): as above

In the case of `Nc1ncnc2c1nc(Br)n2[C@@H]1O[C@@H]2COP(=O)(O)O[C@H]2[C@H]1O` [8-Br-cAMP, 8-Bromoadenosine-3',5'-cyclic monophosphate], in series [1], the EC50 was 1500 µM.

As to `O[C@@H]1[C@@H]2OP(O)(=S)OC[C@H]2O[C@H]1n1cnc2cc(Cl)c(Cl)cc21` (single isomer, unassigned) [Sp-5,6-DCl-cBIMPS, 5,6-dichlorobenzimidazole riboside-3',5'-cyclic monophosphorothioate, Sp-isomer, reference compound], in series [2] (500 μM, after 40 minutes of treatment), the “state of the fluorescent FRET probe after treatment” value was “almost completely saturated”.

Turning to “8-[Pharos-575]adenosine -3',5'-cyclic monophosphate [8-[ϕ-575]-cAMP]”, the “binding to the R subunit compared with cAMP (displacement of 8-Fluo-cAMP)” value at RIα subunit was “bound equally well”. In addition, the “times cAMP is more efficient in displacing 8-Fluo-cAMP compared to 8-[ϕ-575]-cAMP” value in the series with RIIα subunit is “about 10 times”; with RIIβ subunit, about 5 times. Besides, the EC50 on PKA-Iα holoenzyme was 0.15 µM; in [6] (read-out: concentration for half-maximal holoenzyme dissociation, added to intact COS-7 cells), about 600 µM. In addition, the “apparent activation constant (EC50) compared to cAMP, RIIα holoenzyme” value on PKA-IIα holoenzyme is “about two-fold increased”. Also, the “apparent activation constant (EC50) compared to cAMP, RIIβ holoenzyme” value at PKA-IIβ holoenzyme is on record as “about two-fold increased”. In [2] (500 μM added for one hour, estimated from cAMP dose-FRET response curve), the “concentration available to the intracellular fluorescent indicator” value is “about 7 μM”. In addition, the “degradation by PDE4D5” value on PDE4D5 is reported as “No degradation”. Further, the “co-localization with GFP-tagged RIα” value in [3] is listed as “co-localization”. Further, the “co-localization with GFP-tagged RIIα” value in series [4] was “co-localization”. The molecule further returned an emission maximum in series [5] of 605 nm. For the same molecule, the excitation maximum in [5] worked out at 577 nm. Moreover, the “inhibition of specific RIIα-Cα interaction (BRET titration)” value in series [6] (600 μM, COS-7 cells) is on record as “about 50%”. In addition, in series [7] (from logKw), the “increased lipophilicity compared to cAMP” value is “more than 70 times”. Moreover, in series [7] (reversed phase HPLC, YMC RP-18), the logKw is recorded as 2.95.

The values above are taken from PMC2443153 (BMC Biochemistry, 2008).
